From article PMC10412585 (Nature Communications, 2023)

Legend:
[1] = target: T1, CD94/NKG2A (Homo sapiens, UniProt P26715+Q13241); experiment: CD94/NKG2A tetramer staining of yeast-displayed peptide-HLA-E; assay type: binding; details: yeast-displayed single chain trimer, 500 nM tetramer, 2 h, 4 °C, flow cytometry
T1 construct: The C-terminus of human NKG2A or NKG2C ectodomain was connected via a GGSGGS linker to human CD94 ectodomain; AviTag biotinylation tag (C); poly-histidine tag (C); made in house; host or cells: baculovirus, High Five (Hi5) insect cells
From the text: (§1) To study the diversity of the HLA-E peptide repertoire recognized by CD94/NKG2x, we adapted an MHC yeast surface display system previously used to study class Ia MHC-restricted TCR recognition[25],[26]. In this system, peptide, Beta-2-microglobulin (β2M), and MHC heavy chain are covalently linked to each other and fused to the N-terminus of the yeast mating factor protein Aga2p (Fig. 1A, B). The HLA-E single chain trimer construct expressed well on the yeast surface, as confirmed via staining for an included hemagglutinin (HA) epitope tag and via an anti-HLA-E antibody (Fig. 1C). Since epitope tag staining assesses construct expression rather than protein fold[27]–[29], we tested peptide-HLA-E (pHLA-E) fold by staining with its cognate NK receptors. […] (Supplemental Fig. 1A, E–G), though both receptors were able to bind and enable selective enrichment of […]/HLA-E-expressing yeast using avid streptavidin-coated beads (Supplemental Fig. 1B–D).
(§2) To stain peptide-HLA-E (pHLA-E) with CD94/NKG2x tetramers, each biotinylated receptor was mixed with streptavidin coupled to AlexaFluor647 (SAV-647, made in-house) at a 5:1 ratio and incubated for 5 min on ice. Yeast were stained with 500 nM tetramer for 2 h at 4 °C in the dark with rotation. […]

[2] = test system: CD94/NKG2C; experiment: CD94/NKG2C tetramer and dextramer staining of yeast-displayed peptide-HLA-E; assay type: binding, human; details: yeast-displayed single chain trimer, 500 nM tetramer, 2 h, 4 °C, flow cytometry
From the text: as §1, §2

[3] = target: T1, CD94/NKG2A; experiment: Steady-state SPR of peptide-HLA-E single chain trimers with CD94/NKG2A; assay type: binding; details: SPR with CD94/NKG2A and CD94/NKG2C, Fig. 5B; taken as lower stability of the peptide-HLA-E complex
Experimental: Specifically, we measured CD94/NKG2A and CD94/NKG2C affinity for HLA-E complexed with three sets of peptides. […] Third, we included […] peptide as a positive control.
Steady-state surface plasmon resonance experiments were performed with a Biacore T200 instrument. CD94/NKG2x in HBS-EP+ buffer was injected as analyte in a concentration range of 0.1 μM to 102.4 μM and flow rate of 10 μL/min at 25 °C. Data was fit with Prism 9.4 (GraphPad Software Inc; San Diego CA) to a “one site, specific binding” model. Sensorgrams are included in Supplemental Fig. 13.
For investigating WN peptides, biotinylated pMHC was immobilized at approximately 400 Response Units (RU) on a Series S SA sensor chip (Cytiva). […] CD94/NKG2A was injected followed by CD94/NKG2C.
For investigating human-derived peptides, Series S CM5 chips (Cytiva) were coupled to neutravidin and utilized. Biotinylated pMHC was immobilized at approximately 400 RU. On one chip, […] CD94/NKG2A was injected followed by CD94/NKG2C. On a second chip, PISD55-63 HLA-E SCT, AKAP6_388-396 HLA-E SCT, GTF3C5_293-301 HLA-E SCT, and reference HLA-DR401 were immobilized. CD94/NKG2C was injected followed by CD94/NKG2A. Rmax, fit values were calculated by Biacore software. Rmax, theoretical values were calculated using the analyte/ligand mass ratio (0.66) multiplied by the amount of ligand coupled to the chip.

[4] = test system: HLA-E; experiment: HLA-E surface stabilization assay with RMA-S/HLA-E cells; assay type: cell-based, human; details: peptide 3-300 µM (Fig. 3: 30 µM) in OptiMEM, 16 h, 37 °C, anti-HLA-E 3D12, flow cytometry, n = 4 replicate experiments

T1 sequence (Q13241 whole entry, looked up, the tested form may be a part): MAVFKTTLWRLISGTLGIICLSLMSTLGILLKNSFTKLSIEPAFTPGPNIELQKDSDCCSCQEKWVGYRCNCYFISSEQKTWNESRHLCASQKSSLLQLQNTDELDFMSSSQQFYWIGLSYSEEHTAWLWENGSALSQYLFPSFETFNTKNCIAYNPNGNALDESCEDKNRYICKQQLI
T1 sequence (P26715 whole entry, looked up, the tested form may be a part): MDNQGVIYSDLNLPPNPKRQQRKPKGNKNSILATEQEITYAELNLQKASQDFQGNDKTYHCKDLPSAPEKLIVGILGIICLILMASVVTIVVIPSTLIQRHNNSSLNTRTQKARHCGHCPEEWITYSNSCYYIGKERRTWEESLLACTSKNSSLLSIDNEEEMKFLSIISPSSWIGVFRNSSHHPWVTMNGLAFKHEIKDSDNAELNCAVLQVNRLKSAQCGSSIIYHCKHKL

CD94/NKG2A tetramer staining [1]	Sequence	CD94/NKG2C tetramer and dextramer staining [2]	maximal response units (Rmax) compared to theoretical maximum [3]	stabilization of HLA-E surface expression [4]
positively stained cells	VMAPRTLFL [positive control]	minimal signal	–	–
–	VNPGRSLFL [BFAR263-271, human peptide from Bifunctional apoptosis regulator]	–	lower maximal values compared to the theoretical maximum	weak but detectable stabilization
